The data set in a line: Test for the stability against oxidation of arachidonic acid moiety (storage at 37° C., humidity 12%, gas chromatography of non-oxidized arachidonic acid). The format is physicochemical. To be noted: stored at 37° C. The protocol:
The resulting microcapsulated powder of 6-O-arachidonoyl-ascorbate was left in the air at 37° C. and a humidity of 12% for 30 days to determine the stability of the powder against oxidation (See, Example 4 below). During the 30-day period, samples were taken at predetermined intervals and were hydrolyzed into methyl arachidonate, which in turn was subjected to gas chromatography to determine the amount of non-oxidized arachidonic acid. As shown, the stability of any polysaccharides used was improved by powdering. The increase in the stability against oxidation was particularly significant in gum Arabic and soybean polysaccharide.
240 mg of each powder product (microcapsule) obtained in each example was placed in a flat bottom glass container (1.5 cm inner diameter, 3 cm high). Using an aqueous solution of lithium chloride, the humidity inside the container was maintained at 12% and the powder was stored at 37° C. The cup was taken out at predetermined intervals and the 6-O-arachidonoyl-ascorbate encapsulated in the microcapsules was hydrolyzed, followed by esterification with methyl groups. The amount of non-oxidized arachidonic acid was determined by gas chromatography (GC-14B, manufactured by SHIMADZU CORP.). The samples were analyzed using methyl myristate as an internal standard. […]

Regarding `CCCCC/C=C\C/C=C\C/C=C\C/C=C\CCCC(=O)O` [non-capsulated arachidonic acid, arachidonic acid], the “disappearance of non-oxidized arachidonic acid” value is recorded as “disappeared in a few hours”.

For the molecule 6-O-arachidonoyl-ascorbate, the “proportion of the arachidonic acid left unoxidized” value (after 30 days, relative to Day 0) turned out to be 30%.
